# Assay results from patent publication US20210244713A1, “ANHYDROUS COMPOSITIONS OF mTOR INHIBITORS AND METHODS OF USE” (PALVELLA THERAPEUTICS, INC., priority 2018, published 2021).
# What was measured:
# [1] = Ex vivo skin permeation experiment; type: in vitro ADME, Human
# Protocol: Human donor skin was placed between upper and lower compartments. The lower compartment was filled with receiver fluid. Various rapamycin compositions were applied on the surface of the skin facing the upper compartment (11 formulations (i.e., O3, NA21, NA22, NA21, NA17, TD201, NA19, NA25, AG14, NA26 and NA24), n=6 replicates, dosage 10 mg/cm^2) and left for 24 hrs. A positive displacement pipette was used to apply the formulation (˜10 mg/cm^2) to the plunger of a 1 mL syringe. The formulation (10+/−0.5 mg) was applied to the skin surface and spread over the diffusion area using the plunger. Prior to and after the application the weight of the plunger was recorded, from which the dose per cell was calculated.
# Following the time period, the excess rapamycin compositions were wiped from the skin surface and the skin layers were separated into stratum corneum, epidermis, and dermis. The Stratum corneum was removed from the human skin using a tape stripping procedure. The epidermis was separated from the dermis by dry heating at 60° C. for 2 min. Rapamycin was extracted from each layer by 90:10 v/v ethanol:water solvent mixture, and quantified. The receiver fluid in the lower compartment was also analyzed for the presence of rapamycin.
# [2] = Solubility of rapamycin in solvents and solvent combination
smiles,measurement,setting,value
"CO[C@H]1C[C@@H]2CC[C@@H](C)[C@@](O)(O2)C(=O)C(=O)N2CCCC[C@H]2C(=O)O[C@H]([C@H](C)C[C@@H]2CC[C@@H](O)[C@H](OC)C2)CC(=O)[C@H](C)/C=C(\C)[C@@H](O)[C@@H](OC)C(=O)[C@H](C)C[C@H](C)/C=C/C=C/C=C/1C [Rapamycin, rapamycin (sirolimus)]",amount of rapamycin found on the surface of the skin,"[1]; after 24 hours, relative to skin layers",greatest amount
same,amount of rapamycin quantified in both the epidermis and dermis over time,[1]; ex vivo human skin,increase
same,drug residing in the epidermis versus stratum corneum or dermal layer,[1]; ex vivo human skin,more of the drug residing in the epidermis
same,rapamycin detected in the receiver fluid,"[1]; ex vivo human skin, any of the time points across the experimental period",not detected
same,Solubility capacity of each excipient based on concentration in formulation,[2]; IPA at 15.00 wt %,0.56 wt %
same,Solubility capacity of each excipient based on concentration in formulation,"[2]; IPA at 15.00 wt %, listed as rapamycin",−0.56 wt %
same,Solubility capacity of each excipient based on concentration in formulation,[2]; PEG 400 at 60.00 wt %,1.03 wt %
same,Solubility capacity of each excipient based on concentration in formulation,[2]; diisopropyl adipate (DIA) at 15.00 wt %,0.26 wt %
same,Solubility capacity of each excipient based on concentration in formulation,[2]; glycerol at 10.00 wt %,0.08 wt %
same,"Solubility capacity of the solvent system (expected maximum, simple linear additive effect)",[2]; sum of the excipient capacities,1.93 wt %
